Assays:
[1] = Immunization of mice with the peptides: body weight; assay type: in vivo; settings: mice immunized with FCA emulsion, 3 animals per group
Description: (§1) Each peptide synthesized in Example 2 was dissolved in PBS so as to make the concentration 200 μg/ml, the solution was mixed with the same volume of FCA, and the mixture after emulsification was subcutaneously injected into mice at the back (3 animals per group). 4 weeks later, the antibody titer in the serum or saliva against the peptide was assayed by an ELISA method.

[2] = system: anti-Porphyomonas gingivalis fimbria antibodies contained in sera of patients with periodontal disease; assay: Assay of the specific antibody in serum using plates coated with peptide-modified BSA (ELISA); assay type: binding, human; settings: average absorbance (405 nm) of 3 specimens, serum diluted 100 times
Description: One mg of each peptide synthesized in Example 2 was dissolved in 1 ml of 0.1 M phosphate buffered saline (PBS, pH 6.0), 5 mg of sulfated SMCC (made by Pierce Co.) was added, and the mixture was incubated at 30° C. for 30 minutes to conduct maleimidization, and then subjected to Sephadex G-10 column chromatography, and the first eluate fraction was collected. 7 mg of bovine serum albumin (BSA: made by Wako Pure Chemical Industries, Ltd.) was dissolved in 1 ml of 0.1 M phosphate buffer (pH 6.0), 10 mM EDTA, the solution was mixed with the above maleimidized peptide, and the mixture was subjected to reaction at 30° C. for 1 hour. The resultant peptide-modified BSA was subjected to Sephadex G-50 column chromatography, and the first eluate fraction was collected as a plate-preparing antigen solution.
Then, six kind of peptides were synthesized after the process of Example 2, and a plate-preparing antigen solution was similarly prepared as a control.
Each of the resultant antigen solutions was diluted with 0.1 M carbonate buffer (pH 9.6), 150 mM NaCl to give 100 ml of a solution. 10 μl/well of the solution was put in a polystyrene-made microtiter plate (Immunoplate II; maxisorp type; made by Nunc Co.) and left alone at 4° C. overnight, and washing was conducted three times each with 200 μl/well of PBS, using a microtiter automatic washer (hereafter abbreviated as washer; made by Bio-Rad Laboratories). 250 μl/well of PBS containing 0.1% gelatin (made by Nitta Gelatin Co., Ltd.) was added and the mixture was allowed to stand at 4° C. overnight to block the plate. The blocking solution was removed by absorption, and the plate was dried by a vacuum dryer, put in an aluminum bag, and after sealing the bag, kept at 4° C. for the following assay.
Sera of patients of periodontal disease (n=3) and normal subjects (n=3) were used as samples, and each serum was diluted 100 times with PBS containing 10% bovine serum. 100 μl portions of these dilutions were added to the plates coated with various antigens, respectively, and incubation was conducted at 37° C. for 1 hour. Each plate was washed three times with 200 μl of PBST using the washer, 100 μl of a commercially available […] (diluted 10^3 times)/0.1% Casein/PBST was added as a secondary antibody, and incubation was conducted again at 37° C. for 1 hour. The plate was washed in the same manner as above, 100 μl of an o-phenylenediamine solution was added, incubation was conducted at 37° C. for 30 minutes, 100 μl of 0.1 N sulfuric acid was added to stop the reaction, and then, absorbance (405 nm) was measured by a microplate reader (made by Bio-Rad Laboratories) using the reaction well of no addition of the specimen as a control. The measures values are average absorbances of 3 specimens each of the patient group of periodontal disease and the normal subject group.

Porphyomonas gingivalis = assay type: in vivo, guinea pig; settings: for inhibitory effect against infection with Porphyomonas gingivalis: guinea pig, in words; for Degree of redness Longest length × shortest length / Inhibition rate: with FCA; for Degree of redness Longest length × shortest length: 500 μg/animal, inoculation on the 28th day, 24 hours later; for Inhibition rate: relative to the FIA inoculation group
Description: Each peptide synthesized in Example 2 was administered together with FIA (Freund's incomplete adjuvant) or FCA (Freund's complete adjuvant), as a water-in-oil type emulsifier, into the sole of the right hind leg of a guinea pig in an amount of 500 μg/animal/time. Thereafter, on the 28th day, 200 μl of a suspension of 10^11 cells/ml of the bacterium was intracutaneously inoculated into the right flank of the same guinea pig after the hair at the region was shaved. 24 hours later, the longest length and shortest length of the resultant red coloring were measured, and the product of them was calculated. From the product was calculated the inhibition rate.

[3] = system: Porphyomonas gingivalis strain 381; assay: Inhibitory test of Porphyomonas gingivalis infection in Golden hamster with vaccine: resorption of alveolar bone; assay type: in vivo, Golden hamsters; settings: for degree of resorption of the alveolar bone: in words; for Absorbance of alveolar bone (average): vaccine of Example 3, induction with Porphyomonas gingivalis strain 381, 80 days
Excerpt: The effects of vaccine on Peptide 1 and Peptide 7 selected from the results of Test example 1, Test example 2, Test example 3, Test example 4 and Test example 5 were examined according to the following method using degree of resorption of alveolar bone and antibody titer as measures, using the vaccine described in Example 3.
(§2) 3-week-old Golden hamsters (one group consisting of 6 animals, 5 groups in total, 1 Porphyomonas gingivalis strain 381 fimbria immunity induction group, 2 Peptide 1 immunity induction group, 3 Peptide 7 immunity induction group, 4 Nonimmunity induction group, 5 Nonimmunity noninduction group) were used.
(§3) Each of the vaccines of the invention was subcutaneously administered at the oral cavity in amounts of 0.2 ml portions on the third week and the fourth week after the birth, and 0.4 ml on the fifth week.
(§4) Induction of periodontal disease was conducted by culturing Porphyomonas gingivalis strain 381 in GAM broth at 37° C. for 20 hours, collecting the cells by centrifugation, suspending the cells in phisiological saline so that the cell concentration could be 10^9 cells/ml, administering 0.2 ml portions of the suspension into the oral cavity of the Golden hamsters for 7 days starting from the sixth week after the birth, and thereafter, administering the suspension once a week.
After the start of the cell administration, the animals were allowed to freely ingest Diet 2000 (made by Funabashi Nojo) as a dental caries-inducing feed and water.
(§5) After the Golden hamsters were fed for 80 days, 1 ml/kg portions of 0.5% pilocarpine hydrochloride were intraperitoneally administered, and saliva was taken from them. Thereafter, blood was taken from the abdominal aorta of each animal, and serum was obtained therefrom. Further, a bone preparation from each hamster was produced by amputating the head, heat treating the head using an autoclave, removing the muscle part, and washing with water and drying the remaining matter.
The bone preparation was assayed for degree of resorption of the alveolar bone of a molar according to the method^f) of Tsukiyama et al. (Koku Eisei Kaishi (Jornal of Hygiene of Oral Cavity) 28, No. 3, 149, 1978).
f) The bone preparation was stained with 20% silver nitrate solution for 5 minutes, and after water washing and drying, the distance from the enamel-cement junction to the alveolar bone edge was measured by a stereoscopic microscope (magnification 15-fold).

[4] = Inhibitory test of Porphyomonas gingivalis infection in Golden hamster with vaccine: body weight; assay type: in vivo, Golden hamsters; settings: vaccine of Example 3, subcutaneous at the oral cavity, fed for 80 days
Description: as §2, §3, §5

the peptide = assay: Inhibitory test of Porphyomonas gingivalis infection in Golden hamster with vaccine: antibody titer in serum and saliva; assay type: in vivo, Golden hamsters; settings: for Antibody titer Saliva (1/500) / Antibody titer Serum (1/10^5): A405 value by the ELISA method; for antibody titer in the sera and saliva: in words
Description: as §2, §3, §4, §5
The saliva and serum were assayed for antibody titer against the peptide.

[5] = system: fimbrial protein of Porphyomonas gingivalis; assay: Immunization of mice with the peptides: antibody titer in serum or saliva by ELISA; assay type: in vivo; settings: A405 value by the ELISA method, with FCA, 4 weeks later
Description: as §1
The fimbrial protein of Porphyomonas gingivalis was adsorbed on each well of a 96-well microtiter plate for ELISA, and a dilution of the serum with PBS (1/10^5), a dilution of the saliva with PBS (1/500), or a solution obtained by adding each peptide or the fimbrial protein of Porphyomonas gingivalis is to the dilution of the serum or saliva to cause absorption was put in the well. Reaction was conducted at 37° C. for 1 hour, and then assay was conducted by a usual ELISA method.

Substance | Body weight (Average g) [1] [g] | Antibody titer, Normal subject group [2] | Antibody titer, Patient group with peridontal disease [2] | inhibitory effect against infection with Porphyomonas gingivalis (Porphyomonas gingivalis) | Degree of redness Longest length × shortest length (Porphyomonas gingivalis) [mm^2] | Inhibition rate (Porphyomonas gingivalis) [%] | degree of resorption of the alveolar bone [3] | Absorbance of alveolar bone (average) [3] | Body weight (at the time of production of bone preparation) (average g) [4] [g] | Antibody titer Saliva (1/500) (the peptide) | Antibody titer Serum (1/10^5) (the peptide) | antibody titer in the sera and saliva (the peptide) | Antibody titer Saliva (1/500) After absorption [5] | Antibody titer Saliva (1/500) Before absorption [5] | Antibody titer Serum (1/10^5) After absorption [5] | Antibody titer Serum (1/10^5) Before absorption [5]
Peptide 7: synthetic peptide, epitope of the 41 kD fimbrial subunit protein of Porphyomonas gingivalis; sequence in Table 1, not shown (GFYVLENDYS) | 23 | 0.226 | 1.224 | strong inhibitory effect | 240 | 87.7 | inhibition of absoption of the alveolar bone | 41 | 123 | 0.79 | 0.71 | increse of antibody titer | 0.15 | 0.69 | 0.14 | 0.67
Peptide 1: synthetic peptide, epitope of the 41 kD fimbrial subunit protein of Porphyomonas gingivalis; sequence in Table 1, not shown (ENATKVEDIK) | 25 | 0.145 | 1.016 | strong inhibitory effect | 660 | 66.1 | inhibition of absoption of the alveolar bone | 48 | 124 | 0.62 | 0.65 | increse of antibody titer | 0.11 | 0.61 | 0.19 | 0.62
